Earlier results, collected in US20240139208A1, “COMBINED PHARMACEUTICAL COMPOSITION CONTAINING CDK4/6 INHIBITOR AND USE THEREOF” (CHIA TAI TIANQING PHARMACEUTICAL GROUP CO., LTD., priority 2021, published 2024).

solubility in water: insoluble
SMILES: C[C@]12CC[C@@H]3c4ccc(O)cc4C[C@@H](CCCCCCCCC[S+]([O-])CCCC(F)(F)C(F)(F)F)[C@H]3[C@@H]1CC[C@@H]2O (stereo partly drawn) [Fulvestrant, 7-α-[9-(4,4,5,5,5-pentafluoropentylsulfinyl)nonyl]estra-1,3,5-(10)-triene-3,17-β-diol]
